Columns and labels:
[1] = target: T1, CYP2E1 (Rattus norvegicus, UniProt P05182); assay: Pharmacokinetics of probe substrate CLX and 6-OH-CLX in rats after 21 days of SM pretreatment; conditions: single oral 30 mg/kg CLX, solvent control group
Procedure: (§1) SD rats were randomly divided into two groups (six rats in each group). One group was orally administered 4% HP-β-CD (w/v) solution as a solvent control group and the other group was orally administered SM 45 mg/kg (dissolved in 4% HP-β-CD (w/v)) for 21 consecutive days. On the 22nd day, rats in the two groups were given a single oral dose of CLX 30 mg/kg (suspended in 0.5% CMC-Na solution (w/v)). […] After the final blood collection, rats were euthanized by intraperitoneal injection of 50% urethane.
(§2) The concentrations of APAP and its metabolites in rat plasma and the concentrations of CLX and 6-OH-CLX in rat plasma, and the phase I metabolic system in vitro were determined by HPLC—MS/MS. […] Briefly, a 50 μL plasma sample was vortexed with 10 μL of the internal standard solution, and 150 μL pf methanol was then added to the mixture and shaken for 3 min to precipitate the protein. The sample was centrifuged at 14,000 rpm for 5 min, and 10 µL of the supernatant was analyzed by LC–MS/MS. […] The noncompartmental analysis using Phoenix WinNonlin software (version 6.3, Pharsight Corp, Mountain View, CA, USA) was used to calculate the pharmacokinetic parameters of CLX and 6-OH-CLX.

[2] = target: CYP2E1 (Homo sapiens, UniProt P05181)
Procedure: (§3) The probe substrate CLX, 50 mM potassium phosphate buffer (KPI, pH 7.4), and 0.25 mg/mL HLMS or RLMs were mixed and then an NADPH-regenerating system (1 mM β-NADP, 5 mM D-glucose-6-phosphate, 1 U/mL glucose-6-phosphate dehydrogenase, and 5 mM MgCl2) were added to initiate reaction. […] HLMs or RLMs were incubated with CLX at 37 °C for 30 min. At the end of the incubation, 100 µL of precooled acetonitrile was added to terminate the reaction. After vortexing and centrifugation at 14,000 rpm for 5 min, 50 µL of supernatant mixed with 10 µL of the internal standard GEN was removed, and the sample was analyzed by HPLC–MS/MS.
(§4) Activities were expressed as a percentage of 6-OH-CLX production in the blank control.
(§5) Nonlinear regression analysis in GraphPad was used to calculate Km and Vmax. To determine the inhibitory type of CYP2E1 by SM, the above data were plotted as a Lineweaver–Burk plot.
(§6) Inhibition data were plotted as Dixon plots, and the inhibition constant (Ki) was calculated from the regression equation.

[3] = target: T1, CYP2E1; conditions: in vivo
Procedure: as §1, §2

[4] = target: T1, CYP2E1; conditions: microsomes
Procedure: as §3, §4, §5, §6

[5] = tested on: APAP-induced ALI mice; assay: APAP-induced ALI in mice: serum ALT/AST, liver reduced GSH, H&E histology; type: in vivo, mouse; conditions: APAP 350 mg/kg i.p., 24 h
Procedure: The levels of ALT and AST in mouse serum and reduced GSH in mouse livers were measured by West China Frontier Pharmatech (Chengdu, China).
The right lower lobe of the mouse liver was fixed with 4% paraformaldehyde for 24 h in preparation for H&E staining. The embedding and slicing processes for H&E staining were performed by Ao’Chuang Biotechnology Co., Ltd. (Chengdu, China). Images were acquired with a phase contrast microscope with 20× and 40× objective lenses. The scale bars were added with ImageJ software.

[6] = tested on: Cyp2e1; assay: Cyp2e1 mRNA and protein expression in mouse liver (RT-qPCR, Western blot); type: in vivo; conditions: mice, single i.p. APAP 350 mg/kg, 24 h
Text: Antibodies against CYP2E1 were kindly provided by Proteintech Biotechnology.

Sequence of CYP2E1 (Homo sapiens, UniProt P05181) (P05181 whole entry): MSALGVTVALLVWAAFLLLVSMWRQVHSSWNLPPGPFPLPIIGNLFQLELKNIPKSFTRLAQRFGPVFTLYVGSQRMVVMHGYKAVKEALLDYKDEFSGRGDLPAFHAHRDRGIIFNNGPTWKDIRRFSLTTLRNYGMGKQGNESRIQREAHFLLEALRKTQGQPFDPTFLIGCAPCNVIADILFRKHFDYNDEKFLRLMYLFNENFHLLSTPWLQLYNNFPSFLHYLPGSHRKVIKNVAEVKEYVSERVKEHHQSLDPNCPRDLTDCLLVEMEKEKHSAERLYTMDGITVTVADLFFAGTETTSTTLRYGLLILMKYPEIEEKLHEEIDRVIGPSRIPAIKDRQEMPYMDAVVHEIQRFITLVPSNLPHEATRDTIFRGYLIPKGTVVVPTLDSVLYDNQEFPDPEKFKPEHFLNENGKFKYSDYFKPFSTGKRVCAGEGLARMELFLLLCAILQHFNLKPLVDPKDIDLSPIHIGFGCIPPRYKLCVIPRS
T1 sequence (P05182 whole entry): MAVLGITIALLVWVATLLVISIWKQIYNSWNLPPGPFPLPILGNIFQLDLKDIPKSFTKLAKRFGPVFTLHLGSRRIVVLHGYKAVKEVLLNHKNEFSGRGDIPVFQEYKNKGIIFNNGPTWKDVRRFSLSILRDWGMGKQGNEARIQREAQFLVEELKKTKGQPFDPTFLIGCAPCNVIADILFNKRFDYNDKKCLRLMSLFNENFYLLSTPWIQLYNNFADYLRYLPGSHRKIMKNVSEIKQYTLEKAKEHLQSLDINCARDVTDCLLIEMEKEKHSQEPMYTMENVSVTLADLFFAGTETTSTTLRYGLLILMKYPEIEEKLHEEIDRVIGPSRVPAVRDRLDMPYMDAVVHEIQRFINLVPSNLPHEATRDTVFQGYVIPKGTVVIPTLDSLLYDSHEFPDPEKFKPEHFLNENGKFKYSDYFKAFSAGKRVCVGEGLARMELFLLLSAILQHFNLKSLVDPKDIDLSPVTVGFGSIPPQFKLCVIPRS

O=c1[nH]c2cc(Cl)c(O)cc2o1 [6-OH-CLX]
AUC0-t of 6-OH-CLX [1]: 287.58 ± 106.13 ng·h/mL
AUC0-∞ of 6-OH-CLX [1]: 325.78 ± 127.17 ng·h/mL

silymarin
Km of CLX [2]: 1827 ± 318 µM
Vmax of CLX [2]: 4.56 ± 1.67 nM/h/mg Protein
IC50 ([2]; microsomes): 14.8 µM
Ki ([2]; microsomes): 23.2 µM
CL of CLX [3]: 4.5353 ± 0.6998 mL/min/kg
Vd of CLX [3]: 1.56626 ± 0.67478 L/kg
t1/2 of CLX [3]: 3.92 ± 1.25 h
tmax of CLX [3]: 0.58 ± 0.30 h
IC50 [4]: 26.1 µM
Ki [4]: 9.49 µM

CC(=O)Nc1ccc(O)cc1 [APAP, Acetaminophen]
liver histopathology (H&E), hepatic lobule structure [5]: severely damaged
liver reduced GSH content vs solvent control group [5]: significantly reduced
serum ALT level vs solvent control group [5]: significantly increased
serum AST level vs solvent control group [5]: significantly increased
liver Cyp2e1 mRNA and protein expression vs solvent control group [6]: significantly upregulated

Source: article PMC9784215, “Silymarin Protects against Acute Liver Injury Induced by Acetaminophen by Downregulating the Expression and Activity of the CYP2E1 Enzyme” (Molecules, 2022)
